Laboratory results as given in patent US12559681B2, “Solubilizing agent and solubilizing solution” (NOF CORPORATION, priority 2020, dated 2026).

Key:
[1] = Solubility of the hardly water-soluble substance in PBS (statement); conditions: PBS without solubilizing agent
[2] = Solubilization test of cholecalciferol (vitamin D3): turbidity (absorbance at 450 nm) of a mixture of solubilizing solution and cholecalciferol solution; type: physicochemical; conditions: for turbidity: 100 μL + 1 μL cholecalciferol 20 mg/mL in ethanol, absorbance 450 nm minus PBS alone; for turbidity ratio to PBS: cholecalciferol, less than 10% = dissolved
Experimental: Cholecalciferol (vitamin D3) was dissolved in ethanol at a concentration of 20 mg/mL to prepare a cholecalciferol solution. […] The cholecalciferol solution was dispensed at 1 uL/well. The mixture in each well was stirred for 1 min, and the absorbance of the mixture at a wavelength of 450 nm was measured. In addition, the absorbance of PBS alone not containing cholecalciferol at a wavelength of 450 nm was measured. The difference between the absorbance of the mixture of the solubilizing solution and the cholecalciferol solution at a wavelength of 450 nm and the absorbance of PBS alone at a wavelength of 450 nm was taken as “turbidity of a mixture of a solubilizing solution and a cholecalciferol solution”. A smaller turbidity indicates a larger amount of a hardly water-soluble substance dissolved therein.
In the same manner as in the above except that PBS was used instead of the solubilizing solution, “turbidity of a mixture of PBS and a cholecalciferol solution” (that is, difference between the absorbance of a mixture of PBS and a cholecalciferol solution at a wavelength of 450 nm and the absorbance of PBS alone at a wavelength of 450 nm) was calculated.
As an index for evaluation of whether or not cholecalciferol is dissolved, turbidity ratio to PBS was calculated by the following formula: • turbidity ratio to PBS (%)=100×(turbidity of a mixture of solubilizing solution and cholecalciferol solution)/(turbidity of a mixture of PBS and cholecalciferol solution). When the turbidity ratio to PBS was less than 10%, cholecalciferol was evaluated to have been dissolved.

[3] = Solubilization test of DL-α-tocopherol (vitamin E): turbidity at 450 nm; type: physicochemical; conditions: for turbidity: DL-α-tocopherol 20 mg/mL in ethanol, 1 μL/well, absorbance 450 nm minus PBS alone; for turbidity ratio to PBS: DL-α-tocopherol, less than 10% = dissolved
Experimental: DL-α-tocopherol (vitamin E) was dissolved in ethanol at a concentration of 20 mg/mL to prepare a DL-α-tocopherol solution.
In the same manner as above except that PBS was used instead of the solubilizing solution, “turbidity of a mixture of PBS and a DL-α-tocopherol solution” (that is, difference between the absorbance of a mixture of PBS and a DL-α-tocopherol solution at a wavelength of 450 nm and the absorbance of PBS alone at a wavelength of 450 nm) was calculated.
As an index for evaluation of whether or not DL-α-tocopherol is dissolved, turbidity ratio to PBS was calculated by the following formula: turbidity ratio to PBS (%)=100×(turbidity of a mixture of solubilizing solution and DL-α-tocopherol solution)/(turbidity of a mixture of PBS and DL-x-tocopherol solution). When the turbidity ratio to PBS was less than 10%, DL-α-tocopherol was evaluated to have been dissolved.

[4] = Solubilization test of lauric acid: turbidity at 450 nm; type: physicochemical; conditions: for turbidity: solubilizing agent 5.000% by mass in PBS, lauric acid 100 mg/mL in ethanol, 3 μL/well, absorbance 450 nm minus PBS alone; for turbidity ratio to PBS: solubilizing agent 5.000% by mass, lauric acid, less than 10% = dissolved
Experimental: Lauric acid was dissolved in ethanol at a concentration of 100 mg/mL to prepare a lauric acid solution.
In the same manner as above except that PBS was used instead of the solubilizing solution, “turbidity of a mixture of PBS and a lauric acid solution” (that is, difference between the absorbance of a mixture of PBS and a lauric acid solution at a wavelength of 450 nm and the absorbance of PBS alone at a wavelength of 450 nm) was calculated.
As an index for evaluation of whether or not lauric acid is dissolved, turbidity ratio to PBS was calculated by the following formula: • turbidity ratio to PBS (%)=100×(turbidity of a mixture of solubilizing solution and lauric acid solution)/(turbidity of a mixture of PBS and lauric acid solution). When the turbidity ratio to PBS was less than 10%, lauric acid was evaluated to have been dissolved.

[5] = Solubilization test of myristic acid: turbidity at 450 nm; type: physicochemical; conditions: for turbidity: solubilizing agent 5.000% by mass in PBS, myristic acid 100 mg/mL in ethanol, 3 μL/well, absorbance 450 nm minus PBS alone; for turbidity ratio to PBS: solubilizing agent 5.000% by mass, myristic acid, less than 10% = dissolved
Experimental: Myristic acid was dissolved in ethanol at a concentration of 100 mg/mL to prepare a myristic acid solution.
In the same manner as above except that PBS was used instead of the solubilizing solution, “turbidity of a mixture of PBS and a myristic acid solution” (that is, difference between the absorbance of a mixture of PBS and a myristic acid solution at a wavelength of 450 nm and the absorbance of PBS alone at a wavelength of 450 nm) was calculated.
As an index for evaluation of whether or not myristic acid is dissolved, turbidity ratio to PBS was calculated by the following formula: • turbidity ratio to PBS (%)=100×(turbidity of a mixture of solubilizing solution and myristic acid solution)/(turbidity of a mixture of PBS and myristic acid solution). When the turbidity ratio to PBS was less than 10%, myristic acid was evaluated to have been dissolved.

[6] = Solubilization test of hydrocortisone: turbidity at 450 nm; type: physicochemical; conditions: for turbidity: solubilizing agent 0.050% by mass in PBS, hydrocortisone 20 mg/mL in ethanol, 125 μL/well, absorbance 450 nm minus PBS alone; for turbidity ratio to PBS: solubilizing agent 0.050% by mass, hydrocortisone, less than 10% = dissolved
Experimental: Hydrocortisone was dissolved in ethanol at a concentration of 20 mg/mL to prepare a hydrocortisone solution.
In the same manner as above except that PBS was used instead of the solubilizing solution, “turbidity of a mixture of PBS and a hydrocortisone solution” (that is, difference between the absorbance of a mixture of PBS and a hydrocortisone solution at a wavelength of 450 nm and the absorbance of PBS alone at a wavelength of 450 nm) was measured.

[7] = solubilizing agent 0.025% by mass in PBS
[8] = solubilizing agent 0.025% by mass
[9] = solubilizing agent 0.050% by mass in PBS
[10] = solubilizing agent 0.050% by mass

Row | Compound | solubility in PBS [1] | turbidity [2, 7] | turbidity ratio to PBS [2, 8] [%] | turbidity [2, 9] | turbidity ratio to PBS [2, 10] [%] | turbidity [3, 9] | turbidity ratio to PBS [3, 10] [%] | other results
1 | Cc1c(C)c2c(c(C)c1O)CCC(C)(CCCC(C)CCCC(C)CCCC(C)C)O2 (racemic) [DL-α-tocopherol, reference compound] | insoluble |  |  |  |  |  |  | 
2 | CCCCCCCCCCCC(=O)O [Lauric acid] | insoluble |  |  |  |  |  |  | 
3 | CCCCCCCCCCCCCC(=O)O [Myristic acid] | insoluble |  |  |  |  |  |  | 
4 | CCCCCCCCSCC(C)C(=O)OCCOP(=O)([O-])OCC[N+](C)(C)C (centres unmarked) [Synthetic Example 1, 2-[3-(octylsulfanyl)-2-methylpropionyloxy]ethyl-2-(trimethylammonio)ethyl phosphate] |  | 0.0229 | 9 | 0.0132 | 5 | 0.0000 | 0 | turbidity [3, 7]: 0.0150; turbidity ratio to PBS [3, 8]: 9%; turbidity [4]: 0.0000; turbidity ratio to PBS [4]: 0%; turbidity ratio to PBS ([4]; listed as Example 4-1): less than 10%; turbidity [5]: 0.0231; turbidity ratio to PBS [5]: 5%; turbidity ratio to PBS ([5]; listed as Example 5-1): less than 10%
5 | CCCCCCCCCCCCSCC(C)C(=O)OCCOP(=O)([O-])OCC[N+](C)(C)C (centres unmarked) [Synthetic Example 2, 2-[3-(dodecylsulfanyl)-2-methylpropionyloxy]ethyl-2-(trimethylammonio)ethyl phosphate] |  | 0.0080 | 3 | 0.0009 | 0 | 0.0153 | 9 | 
6 | CCCCCCCCCCCCCCCCSCC(C)C(=O)OCCOP(=O)([O-])OCC[N+](C)(C)C (centres unmarked) [Synthetic Example 3, 2-[3-(hexadecylsulfanyl)-2-methylpropionyloxy]ethyl-2-(trimethylammonio)ethyl phosphate] |  | 0.0231 | 9 | 0.0139 | 6 |  |  | turbidity [6]: 0.0015; turbidity ratio to PBS [6]: 3%; turbidity ratio to PBS ([6]; listed as Example 3-3): less than 10%
7 | Triton X-100 [reference compound] |  |  |  | 0.0331 | 13 | 0.2573 | 147 | turbidity ratio to PBS ([3]; solubilizing agent 0.050% by mass, listed as Comparative Example 2-2-1): not less than 10%; turbidity [6]: 0.0910; turbidity ratio to PBS [6]: 205%; turbidity [4]: 0.0002; turbidity ratio to PBS [4]: 0%; turbidity [5]: 0.0601; turbidity ratio to PBS [5]: 14%
